Results from patent US20040191926A1 (priority 2001, published 2004).

Tests used:
Type in all cases: biochemical
CD45 = target: T1, CD45 (Homo sapiens, UniProt P08575); experiment: Phosphatase panel, pNPP assay; settings: at 10 μM
T1 construct: The intracellular fragment of PTPa, LAR and CD45 containing both of the PTPase domains was cleaved off the fusion protein; GST (cleaved yes); made in house
T1 sequence (P08575 599-1306 limits assumed): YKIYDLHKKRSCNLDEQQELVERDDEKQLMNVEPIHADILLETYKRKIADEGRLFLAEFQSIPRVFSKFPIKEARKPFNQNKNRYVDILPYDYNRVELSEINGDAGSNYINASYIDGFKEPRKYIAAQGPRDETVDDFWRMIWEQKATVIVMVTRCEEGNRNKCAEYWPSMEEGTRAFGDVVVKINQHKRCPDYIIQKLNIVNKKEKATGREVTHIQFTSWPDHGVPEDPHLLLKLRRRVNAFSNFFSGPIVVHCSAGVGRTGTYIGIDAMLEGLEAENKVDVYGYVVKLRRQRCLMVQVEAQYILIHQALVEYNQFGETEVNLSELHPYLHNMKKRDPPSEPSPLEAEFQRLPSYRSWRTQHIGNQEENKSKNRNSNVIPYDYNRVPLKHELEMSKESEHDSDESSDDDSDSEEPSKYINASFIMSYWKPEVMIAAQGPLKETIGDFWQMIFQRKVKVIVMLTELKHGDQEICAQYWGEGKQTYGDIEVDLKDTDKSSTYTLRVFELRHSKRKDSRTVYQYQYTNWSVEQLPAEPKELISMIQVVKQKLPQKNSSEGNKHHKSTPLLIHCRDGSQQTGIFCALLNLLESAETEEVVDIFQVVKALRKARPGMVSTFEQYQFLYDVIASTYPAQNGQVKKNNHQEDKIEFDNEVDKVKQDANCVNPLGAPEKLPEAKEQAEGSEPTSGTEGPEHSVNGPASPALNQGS

Cdc25A = target: T2, Cdc25A (Homo sapiens, UniProt P30304); experiment: Phosphatase panel, pNPP assay; settings: at 10 μM
T2 sequence (P30304 1-524): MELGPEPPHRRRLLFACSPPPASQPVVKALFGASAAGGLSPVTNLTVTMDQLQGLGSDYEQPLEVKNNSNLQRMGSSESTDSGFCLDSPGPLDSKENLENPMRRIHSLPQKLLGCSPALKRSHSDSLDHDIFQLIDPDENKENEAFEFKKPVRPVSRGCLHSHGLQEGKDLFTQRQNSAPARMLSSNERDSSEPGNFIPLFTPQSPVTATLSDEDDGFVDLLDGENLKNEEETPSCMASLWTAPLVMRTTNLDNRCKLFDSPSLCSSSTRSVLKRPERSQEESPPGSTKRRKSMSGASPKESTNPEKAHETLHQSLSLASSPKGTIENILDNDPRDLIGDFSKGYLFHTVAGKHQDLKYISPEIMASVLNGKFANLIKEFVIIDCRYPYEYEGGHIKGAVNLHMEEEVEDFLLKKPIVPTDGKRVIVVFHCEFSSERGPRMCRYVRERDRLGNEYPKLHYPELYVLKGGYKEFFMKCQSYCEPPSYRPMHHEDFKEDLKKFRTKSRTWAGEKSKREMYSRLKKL

PTP1B = target: T3, PTP1B (Homo sapiens, UniProt P18031); experiment: PTPase activity assay with pNPP substrate
T3 construct: PTP1B (residues 1-321) (22); made in house; host or cells: E. coli
T3 sequence (P18031 1-321): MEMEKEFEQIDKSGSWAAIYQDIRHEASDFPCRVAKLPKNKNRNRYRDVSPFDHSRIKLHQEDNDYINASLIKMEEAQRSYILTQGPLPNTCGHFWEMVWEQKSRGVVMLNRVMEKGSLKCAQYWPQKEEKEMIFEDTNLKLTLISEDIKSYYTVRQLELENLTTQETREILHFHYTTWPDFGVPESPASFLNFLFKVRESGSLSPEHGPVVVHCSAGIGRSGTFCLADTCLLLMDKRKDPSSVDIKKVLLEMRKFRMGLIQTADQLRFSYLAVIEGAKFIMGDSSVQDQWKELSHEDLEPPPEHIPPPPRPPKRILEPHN

SHP1 = target: T4, SHP1 (Homo sapiens, UniProt P29350); experiment: Phosphatase panel, pNPP assay; settings: 2 mM pNPP; read-out: Inhibition Potency, IC50
T4 construct: the catalytic domains of SHP1 and SHP2 were expressed and purified as (His)6-fusion proteins; (His)6; made in house
T4 sequence (P29350 244-515 limits assumed): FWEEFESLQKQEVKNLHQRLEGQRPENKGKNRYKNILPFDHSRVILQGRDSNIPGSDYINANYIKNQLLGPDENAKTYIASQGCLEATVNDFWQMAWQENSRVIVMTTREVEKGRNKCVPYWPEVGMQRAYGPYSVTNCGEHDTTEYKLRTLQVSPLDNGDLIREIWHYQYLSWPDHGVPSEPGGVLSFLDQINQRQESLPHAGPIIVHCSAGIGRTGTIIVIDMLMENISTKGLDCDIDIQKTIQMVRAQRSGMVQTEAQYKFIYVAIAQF

Compound: NC(=O)C(Cc1ccc(C(F)(F)P(=O)(O)O)cc1)NC(=O)C(CC(=O)O)NC(=O)Cc1ccc(C(F)(F)P(=O)(O)O)cc1 (centres unmarked) [Compound 40]
- Inhibition Potency (CD45): No inhibition at 10 μM
- Inhibition Potency (Cdc25A): No inhibition at 10 μM
- preference for PTP1B versus nearly all phosphatases examined (PTP1B; panel of Table 2): greater than three orders of magnitude
- mode of inhibition (PTP1B; with respect to the substrate pNPP): competitive
- IC50 (SHP1): 11 µM
